Like-named read-outs stand apart in the source and are kept apart here.
Columns and labels:
[1] = system: PC9 cells (EGFR Exon 19 del, non-small cell lung cancer cells); assay: Cell viability assay (WST/CCK8), PC9 cells; format: cell-based; conditions: Homo sapiens, PC-9, PC9 (Exon19 Del), 72 hours, read-out: IC50 (half inhibitory concentration)
Description: The cell lines with abnormal EGFR expression used are as follows: • HCC827 cells (EGFR Exon19 del, non-small cell lung cancer cells); • PC9 cells (EGFR Exon 19 del, non-small cell lung cancer cells); • PC9BracA1 (EGFR Exon 19 del+T790M, non-small cell lung cancer cells) • H1975 (EGFR Exon T790M+L858R mutation, non-small cell lung cancer cell line) • BT474 cells (HER2 positive breast cancer cells)
All of the half inhibitory concentrations (IC50) of these compounds of the present invention were determined with WST reagent from Fuyuan Biotec Company. The specific experiment procedures are as follows: Cancer cells were planted in 96-well-plate at the density of 3 000 cells per well with 100 μL RPMI1640 completed culture medium. In the next day, compounds with indicated concentrations were added to the cells, DMSO was used as the negative control and the EGFR TKIs were used to treat cells as the positive groups. After 72 hours drug treatment, cell viability was measured by using the WST reagent following the instructions.
The cells were treated with the gradient concentration of these compounds (the maximum concentration: 10 μM; 3-fold dilution ratio, 10 concentration gradients) for 72 hours and then incubated with the WST (CCK8) reagent to determine the cell viability.

[2] = system: HCC827 cells (EGFR Exon19 del, non-small cell lung cancer cells); assay: Cell viability assay (WST/CCK8), HCC827 cells; format: cell-based; conditions: Homo sapiens, HCC827, 72 h, HCC827 (Exon19 Del), 72 hours, read-out: IC50 (half inhibitory concentration)
In short: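 Cells seeded at 3 000/well in RPMI1640 complete medium, dosed next day with compounds (top 10 μM, 3-fold, 10 points) for 72 h. Viability read with WST (CCK8) reagent; DMSO as negative control, EGFR TKIs as positive controls; IC50 determined.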

[3] = Table 6, canertinib-based compounds, WST

Row | IC50 [1, 3] [µM] | IC50 [2, 3] [µM] | IC50 ([1]; WST (CCK8)) [µM] | IC50 ([2]; WST (CCK8)) [µM] | SMILES
1 | 0.0885 | 0.041 |  |  | C=CC(=O)Nc1cc2c(Nc3ccc(F)c(Cl)c3)ncnc2cc1OCCCN1CCN(C(=O)CCC(=O)NCCNc2cccc3c2C(=O)N(C2CCC(=O)NC2=O)C3=O)CC1 (stereo not drawn) [SIAIS249100, 4-(4-(3-((6-acrylamido-4-((3-chloro-4-fluorophenyl)amino)quinazolin-7-yl)oxy)propyl)piperazin-1-yl)-N-(2-((2-(2,6-dioxopiperidin-3-yl)-1,3-dioxoisoindolin-4-yl)amino)ethyl)-4-oxobutanamide]
2 | 0.0585 | 0.07 |  |  | C=CC(=O)Nc1cc2c(Nc3ccc(F)c(Cl)c3)ncnc2cc1OCCCN1CCN(C(=O)CCN2CCN(CCC(=O)N[C@H](C(=O)N3C[C@H](O)C[C@H]3C(=O)NCc3ccc(-c4scnc4C)cc3)C(C)(C)C)CC2)CC1 [SIAIS249101, (2S,4R)-1-((S)-2-(3-(4-(3-(4-(3-((6-acrylamido-4-((3-chloro-4-fluorophenyl)amino)quinazolin-7-yl)oxy)propyl)piperazin-1-yl)-3-oxopropyl)piperazin-1-yl)propanamido)-3,3-dimethylbutanoyl)-4-hydroxy-N-(4-(4-methylthiazol-5-yl)benzyl)pyrrolidine-2-carboxamide]
3 |  |  | 0.0204 | 0.0128 | COc1cc2ncnc(Nc3ccc(F)c(Cl)c3)c2cc1NC(=O)/C=C/CN1CCC(N2CCN(C(=O)CCC(=O)NCCOCCNc3cccc4c3C(=O)N(C3CCC(=O)NC3=O)C4=O)CC2)CC1 (stereo not drawn) [SIAIS249103, (E)-N-(4-((3-chloro-4-fluorophenyl)amino)-7-methoxyquinazolin-6-yl)-4-(4-(4-(4-((2-(2-((2-(2,6-dioxopiperidin-3-yl)-1,3-dioxoisoindolin-4-yl)amino)ethoxy)ethyl)amino)-4-oxobutanoyl)piperazin-1-yl)piperidin-1-yl)but-2-enamide]
4 |  |  | 0.0605 | 0.0543 | COc1cc2ncnc(Nc3ccc(F)c(Cl)c3)c2cc1NC(=O)/C=C/CN1CCC(N2CCN(C(=O)CCN3CCN(CCC(=O)N[C@H](C(=O)N4C[C@H](O)C[C@H]4C(=O)NCc4ccc(-c5scnc5C)cc4)C(C)(C)C)CC3)CC2)CC1 [SIAIS249105, (2S,4R)-1-((S)-2-(3-(4-(3-(4-(1-((E)-4-((4-((3-chloro-4-fluorophenyl)amino)-7-methoxyquinazolin-6-yl)amino)-4-oxobut-2-en-1-yl)piperidin-4-yl)piperazin-1-yl)-3-oxopropyl)piperazin-1-yl)propanamido)-3,3-dimethylbutanoyl)-4-hydroxy-N-(4-(4-methylthiazol-5-yl)benzyl)pyrrolidine-2-carboxamide]
5 |  |  | 0.015 | 0.0072 | COc1cc2ncnc(Nc3ccc(F)c(Cl)c3)c2cc1NC(=O)/C=C/CN1CCN(C(=O)COCCOCCOCCOCCOCCSc2cccc3c2CN(C2CCC(=O)NC2=O)C3=O)CC1 (stereo not drawn) [SIAIS262004, (E)-N-(4-((3-chloro-4-fluorophenyl)amino)-7-methoxyquinazolin-6-yl)-4-(4-(17-((2-(2,6-dioxopiperidin-3-yl)-1-oxoisoindolin-4-yl)thio)-3,6,9,12,15-pentaoxaheptadecan-1-oyl)piperazin-1-yl)but-2-enamide]
6 |  |  | 0.084 | 0.0669 | COc1cc2ncnc(Nc3ccc(F)c(Cl)c3)c2cc1NC(=O)/C=C/CN1CCN(C(=O)COCCOCCSc2cccc3c2C(=O)N(C2CCC(=O)NC2=O)C3=O)CC1 (stereo not drawn) [SIAIS262005, (E)-N-(4-((3-chloro-4-fluorophenyl)amino)-7-methoxyquinazolin-6-yl)-4-(4-(2-(2-(2-((2-(2,6-dioxopiperidin-3-yl)-1,3-dioxoisoindolin-4-yl)thio)ethoxy)ethoxy)acetyl)piperazin-1-yl)but-2-enamide]
7 |  |  | 0.073 | 0.0355 | COc1cc2ncnc(Nc3ccc(F)c(Cl)c3)c2cc1NC(=O)/C=C/CN1CCN(C(=O)COCCOCCOCCSc2cccc3c2C(=O)N(C2CCC(=O)NC2=O)C3=O)CC1 (stereo not drawn) [SIAIS262006, (E)-N-(4-((3-chloro-4-fluorophenyl)amino)-7-methoxyquinazolin-6-yl)-4-(4-(2-(2-(2-(2-((2-(2,6-dioxopiperidin-3-yl)-1,3-dioxoisoindolin-4-yl)thio)ethoxy)ethoxy)ethoxy)acetyl)piperazin-1-yl)but-2-enamide]
8 |  |  | 0.028 | 0.0358 | COc1cc2ncnc(Nc3ccc(F)c(Cl)c3)c2cc1NC(=O)/C=C/CN1CCN(C(=O)CCOCCOCCNc2cccc3c2C(=O)N(C2CCC(=O)NC2=O)C3=O)CC1 (stereo not drawn) [SIAIS262013, (E)-N-(4-((3-chloro-4-fluorophenyl)amino)-7-methoxyquinazolin-6-yl)-4-(4-(3-(2-(2-((2-(2,6-dioxopiperidin-3-yl)-1,3-dioxoisoindolin-4-yl)amino)ethoxy)ethoxy)propanoyl)piperazin-1-yl)but-2-enamide]
9 |  |  | 0.012 | 0.003 | COc1cc2ncnc(Nc3ccc(F)c(Cl)c3)c2cc1NC(=O)/C=C/CN1CCN(C(=O)CCCCCCNc2cccc3c2C(=O)N(C2CCC(=O)NC2=O)C3=O)CC1 (stereo not drawn) [SIAIS262015, (E)-N-(4-((3-chloro-4-fluorophenyl)amino)-7-methoxyquinazolin-6-yl)-4-(4-(7-((2-(2,6-dioxopiperidin-3-yl)-1,3-dioxoisoindolin-4-yl)amino)heptanoyl)piperazin-1-yl)but-2-enamide]

Continued, compound first:

Row | SMILES | IC50 [1, 3] [µM] | IC50 [2, 3] [µM] | IC50 ([1]; WST (CCK8)) [µM] | IC50 ([2]; WST (CCK8)) [µM]
10 | COc1cc2ncnc(Nc3ccc(F)c(Cl)c3)c2cc1NC(=O)/C=C/CN1CCC(N2CCN(C(=O)CCC(=O)NCCNc3cccc4c3C(=O)N(C3CCC(=O)NC3=O)C4=O)CC2)CC1 (stereo not drawn) [SIAIS249104, (E)-N-(4-((3-chloro-4-fluorophenyl)amino)-7-methoxyquinazolin-6-yl)-4-(4-(4-(4-((2-((2-(2,6-dioxopiperidin-3-yl)-1,3-dioxoisoindolin-4-yl)amino)ethyl)amino)-4-oxobutanoyl)piperazin-1-yl)piperidin-1-yl)but-2-enamide] |  |  | 0.0376 | 0.0182
11 | COc1cc2ncnc(Nc3ccc(F)c(Cl)c3)c2cc1NC(=O)/C=C/CN1CCC(N2CCN(C(=O)CCc3ccc(CCC(=O)N[C@H](C(=O)N4C[C@H](O)C[C@H]4C(=O)NCc4ccc(-c5scnc5C)cc4)C(C)(C)C)cc3)CC2)CC1 [SIAIS249106, (2S,4R)-1-((S)-2-(3-(4-(3-(4-(1-((E)-4-((4-((3-chloro-4-fluorophenyl)amino)-7-methoxyquinazolin-6-yl)amino)-4-oxobut-2-en-1-yl)piperidin-4-yl)piperazin-1-yl)-3-oxopropyl)phenyl)propanamido)-3,3-dimethylbutanoyl)-4-hydroxy-N-(4-(4-methylthiazol-5-yl)benzyl)pyrrolidine-2-carboxamide] |  |  | 0.0501 | 0.0162
12 | COc1cc2ncnc(Nc3ccc(F)c(Cl)c3)c2cc1NC(=O)/C=C/CN1CCN(C(=O)COCCOCCSc2cccc3c2CN(C2CCC(=O)NC2=O)C3=O)CC1 (stereo not drawn) [SIAIS262001, (E)-N-(4-((3-chloro-4-fluorophenyl)amino)-7-methoxyquinazolin-6-yl)-4-(4-(2-(2-(2-((2-(2,6-dioxopiperidin-3-yl)-1-oxoisoindolin-4-yl)thio)ethoxy)ethoxy)acetyl)piperazin-1-yl)but-2-enamide] |  |  | 0.053 | 0.0269
13 | COc1cc2ncnc(Nc3ccc(F)c(Cl)c3)c2cc1NC(=O)/C=C/CN1CCN(C(=O)COCCOCCOCCSc2cccc3c2CN(C2CCC(=O)NC2=O)C3=O)CC1 (stereo not drawn) [SIAIS262002, (E)-N-(4-((3-chloro-4-fluorophenyl)amino)-7-methoxyquinazolin-6-yl)-4-(4-(2-(2-(2-(2-((2-(2,6-dioxopiperidin-3-yl)-1-oxoisoindolin-4-yl)thio)ethoxy)ethoxy)ethoxy)acetyl)piperazin-1-yl)but-2-enamide] |  |  | 0.078 | 0.0261
14 | COc1cc2ncnc(Nc3ccc(F)c(Cl)c3)c2cc1NC(=O)/C=C/CN1CCN(C(=O)COCCOCCOCCOCCSc2cccc3c2C(=O)N(C2CCC(=O)NC2=O)C3=O)CC1 (stereo not drawn) [SIAIS262007, (E)-N-(4-((3-chloro-4-fluorophenyl)amino)-7-methoxyquinazolin-6-yl)-4-(4-(14-((2-(2,6-dioxopiperidin-3-yl)-1,3-dioxoisoindolin-4-yl)thio)-3,6,9,12-tetraoxatetradecanoyl)piperazin-1-yl)but-2-enamide] |  |  | 0.084 | 0.026
15 | COc1cc2ncnc(Nc3ccc(F)c(Cl)c3)c2cc1NC(=O)/C=C/CN1CCN(C(=O)CCOCCOCCOCCOCCNc2cccc3c2C(=O)N(C2CCC(=O)NC2=O)C3=O)CC1 (stereo not drawn) [SIAIS262014, (E)-N-(4-((3-chloro-4-fluorophenyl)amino)-7-methoxyquinazolin-6-yl)-4-(4-(1-((2-(2,6-dioxopiperidin-3-yl)-1,3-dioxoisoindolin-4-yl)amino)-3,6,9,12-tetraoxapentadecan-15-oyl)piperazin-1-yl)but-2-enamide] |  |  | 0.128 | 0.0395

From patent publication US12564638B2 (SHANGHAITECH UNIVERSITY, priority 2019, dated 2026)
